Test results taken from patent publication US8853227B2, “Methotrexate adjuvants to reduce toxicity and methods for using the same” (Tosk, Incorporated, priority 2008, dated 2014).

What was measured:
CCRF-CEM cells = test: Cell Culture Study I (MTX cytotoxicity, alamarBlue); assay type: cell-based, human
Experimental: In this study, CCRF-CEM cells purchased from ATCC were cultured and then 12 tubes containing approximately 10^6 cells each treated for 72 hours with media (Group1), MTX 0.03 μM (Group2), MTX+Leucovorin 1 μM (Group3), MTX+Leucovorin 10 μM (Group4), MTX+Leucovorin 100 μM (GroupS), MTX+TK-112690 1 μM (Group6), MTX+TK-112690 10 μM (Group7) and MTX+TK-112690 100 μM (Group8). […] Viability was measured as percent reduction of alamarBlue absorbance.
The tumor cell line CCR-CEM (human T-cell acute lymphoblastic leukemia) is obtained from American Type Culture Collection (CRL-1593.2) and cultured in accordance with the product information sheet with the following exceptions: 55.3 cm^2 Petri dishes are used instead of 75 cm^2 culture flasks, and 1% penicillin-streptomycin solution (HyClone SV30010) and 1% GlutaMAX™ (Gibco 35050) are added to the culture medium.
TK-112690, the representative 2,2′-anhydropyrimidine test article, is dissolved in 40% DMSO, sterile filtered then diluted with sterile distilled water to obtain initial working solutions of 10, 100 and 1000 μM. In testing, a 100 fold dilution is made in culture media to give final assay concentrations of 0.1, 1.0 and 10.0 μM. MTX (SAFC Biosciences M8407) is dissolved in sterile distilled water and 5 N NaOH then sterile filtered. The final pH of the stock solution is 7.8 and working solutions are made with sterile distilled water for final assay concentrations of 30, 3.0, 0.3, 0.03 and 0.003 μM. Leucovorin (Sigma F-7878) is dissolved in sterile distilled water, sterile filtered and diluted with sterile distilled water for final assay concentrations of 0.1, 1.0 and 10.0 μM.
Aliquots of 100 μL of cell suspension are plated in 96 well microtiter plates (Corning costar 3595) and placed in an atmosphere of 5% CO2 at 37° C. (Fisher Scientific Isotemp 3500 CO2 Incubator). After 24 hours, 100 μL of growth medium [RPMI-1640 w/L-glutamine (Cambrex 12-702Q) fortified with sodium pyruvate (HyClone SH30239.01), fetal bovine serum (SAFC Biosciences 12107C) and HEPES buffer (Gibco 15630)] and 2 μL of test solution or vehicle are added respectively per well and the plates incubated for an additional 72 hour incubation. MTX is evaluated at concentrations of 0.003, 0.03, 0.30 and 3.0 μM alone or in combination with either a 2,2′-anhydropyrimidine test article or Leucovorin at concentrations of 0.1, 1.0, 10.0 μM. At the end of incubation, the efficacy of anti-cell proliferation is determined by optical absorbance at A=570 and 600 nm [Spectramax 250 (Molecular Devices)] in accordance with the standard alamarBlue™ (Biosource) protocol.
Group 1 is the cell control (media treated). Group 2 corresponds to cells treated with 0.03 μM MTX. Group 3 are cells treated with 1.0 μM Leucovorin. Group 4 are cells treated with 0.1 μM Leucovorin. […]

CCRF-CEM human tumors = test: Mouse Study IV (xenograft with CCRF-CEM implants); assay type: in vivo, SCID mice; details: MTX 7.5 mg/kg/injection + TK-112690 30 mg/kg ±3 hrs ip; day 27; p=1
Experimental: In this study, n=10 SCID mice per dose group were treated with CCRF-CEM human tumors and the tumors allowed to grow to a size of approximately 100 mg. Then the animals were treated by intraperitoneal (ip) injection with either control 20% DMSO/80% PBS (1×/day)×5 days (Group 1), MTX 7.5 mg/kg/injection (1×/day)×5 days (Group 2) or MTX 7.5 mg/kg/inj. (1×/day)×5 days+TK-112690 30 mg/kg/inj.±3 hrs (group 3). The Figure provides tumor sizes in each of the 3 groups on Day 27 of the study.
A xenograft study was performed to analyze the effect of TK-112690. administration on the in vivo efficacy of MTX against a human cancer. Human CCRF-CEM (T-ALL) cells were implanted subcutaneously into SCID mice. Tumor volumes were recorded on a regular basis, and once tumors had become established, treatment was given. […] All treatments were given ip, and TK-112690 was give 3 hours prior to and 3 hours after MTX administration.

Structure (SMILES): Cc1cn2c(nc1=O)O[C@H]1[C@H](O)[C@@H](CO)O[C@H]12 [TK-112690, 2,2′-anhydro-5-methyluridine]
- cell viability, MTX+TK-112690 versus MTX alone (CCRF-CEM cells; 0.03 μM MTX + TK-112690, 72 hours, p<0.844, 0.918, 1.000): not different
- cell viability, test article alone versus control (CCRF-CEM cells; without MTX, 72 hours): not statistically different than control
- tumor volume, MTX+TK-112690 versus MTX (CCRF-CEM human tumors): not significantly different
